# Measured values published in patent US20260097111A1, “ETHER LIPIDS FOR HYPERACTIVATION OF MAMMALIAN DENDRITIC CELLS” (priority 2022, published 2026).
# Columns and labels:
# [1] = test system: human moDC; test: Staining moDC for activation marker expression; assay type: cell-based
# Procedure: Staining moDC for Activation Marker Expression. After treatment and supernatant collection, cells were resuspended in 200 μL/well PBS and transferred to 96-well V-bottom plates. To pellet cells and remove supernatant, plates were spun at 400×g for 4 min for this and subsequent steps. Cells were washed again with 200 μL/well PBS and pelleted. Live/dead Near-IR staining dye was diluted 1000-fold in PBS. […] Fc block was diluted 100-fold in FACS buffer, and 100 μL/well was added to cells. Cells were incubated with Fc block for 10 min at 4° C. During incubation primary CCR7 antibody (clone 2H4) was diluted 100-fold in FACS buffer. Cells were pelleted and primary CCR7 antibody was added at 100 μL/well. Cells were incubated at 37° C. for 30 min. Biotinylated rat anti-mouse IgM secondary was prepared by diluting 200-fold in FACS buffer. Cells were washed twice with FACS buffer before 100 μL/well secondary antibody was added. Cells were incubated at 4° C. for 20 min. Tertiary staining antibody cocktail was prepared in a mixture of FACS buffer and Brilliant Stain Buffer (1:1 volume ratio of each buffer). […], CD11c (PE-Cy7), CD209 (PE), CD40 (UV563), CD83 (UV737), CD86 (BV711), and HLA-DR (UV395) were all diluted 200-fold. HLA-ABC (BV605) was diluted 100-fold. […]
# For flow cytometry analysis, fluorescence compensation was set up using compensation […]. […]
# [2] = test system: human moDCs; test: In vitro transwell migration assay towards CCL19; assay type: cell-based; details: donor HD87, 10 ng/mL CCL19; FIG. 34A
# Procedure: In Vitro Transwell Migration Assay. To test the capacity of human dendritic cells to migrate, an in vitro migration assay was set up. After differentiation into moDC using GM-CSF and IL-4, cells were plated on 10 cm petri dishes at 4×10^6 cells/plate in R10++. Cells were treated with various combinations of 2.85 μM R848, 82.5 μM DGP, and 10 μM MCC950 (final concentrations). Additionally, 50 ng/mL GM-CSF and 25 ng/mL IL-4 was added to the plates. Cell cultures were incubated in a total of 8 mL/plate in a 37° C. incubator on an orbital shaker set at 100 rpm overnight.
# Cells were collected from plates and any remaining cells on plates were washed off the plates using PBS. After pelleting cells at 400×g for 5 min, cells were resuspended in R10++ and counted. Cell concentrations were adjusted to 5×10^5 cells/mL and plated in triplicate in the apical chambers of transwells at 1.5×10^5 cells/well. R10++ media containing 0; 20; or 200 ng/mL CCL19 were prepared and added to the basal chambers at 300 μL/well. For each cell treatment condition, control wells without transwell inserts were plated with an equivalent volume of cells and R10++ media. […]
# To enumerate migrated DCs, an absolute count was obtained based on the total events acquired of counting beads and live, CD11c+CD209+ single cells. […] Finally, migration was calculated relative to cells treated with only R848 with no CCL19 added.
SMILES,"percentage of CD83+ cells ([1]; 2.85 μM R848 and/or 82.5 μM DGP, overnight, FIG. 24A)",CD86 MFI ([1]; FIG. 25B),migration to the basal chamber [2]
"CCCCCCCCCCCCCCCCCCCCCCOC[C@@H](O)COP(=O)(O)O [Compound 2, 1-docosyl-sn-glycerol-3-phosphate]","increased CD83 expression, but increase was not found to be statistically significant",significant increases in CD86 expression as compared to unstimulated cells,–
"CC(C)(O)c1coc(S(=O)(=O)NC(=O)Nc2c3c(cc4c2CCC4)CCC3)c1 [MCC950, reference compound]",–,–,did not inhibit the hypermigration observed with R848+DGP
